Measurements: US8435976B2, “4-substituted pyridin-3-yl-carboxamide compounds and methods of use” (F. Hoffmann-La Roche, priority 2009, dated 2013)

System: multiple myeloma cell line MM.1S
Test: MM.1S 3 day proliferation assay, single agents and combinations (Cell-Titer Glo)
Assay type: cell-based
Conditions: FIG. 1
Procedure: The in vitro potency of the combinations of formula I compounds with chemotherapeutic agents was measured by the cell proliferation assay of Example 11 and the results are compiled in Example iii. The CellTiter-Glo® Luminescent Cell Viability Assay (commercially available from Promega Corp., Madison, Wis.) is a homogeneous assay method based on the recombinant expression of Coleoptera luciferase (U.S. Pat. No. 5,583,024; U.S. Pat. No. 5,674,713; U.S. Pat. No. 5,700,670) and determines the number of viable cells in culture based on quantitation of the ATP present, an indicator of metabolically active cells (Crouch et al (1993) J. Immunol. Meth. 160:81-88; U.S. Pat. No. 6,602,677). The CellTiter-Glo® Assay was conducted in 96 or 384 well format, making it amenable to automated high-throughput screening (HTS) (Cree et al (1995) AntiCancer Drugs 6:398-404). The homogeneous assay procedure involves adding the single reagent (CellTiter-Glo® Reagent) directly to cells cultured in serum-supplemented medium. Cell washing, removal of medium and multiple pipetting steps are not required. The system detects as few as 15 cells/well in a 384-well format in 10 minutes after adding reagent and mixing.
The homogeneous “add-mix-measure” format results in cell lysis and generation of a luminescent signal proportional to the amount of ATP present. […] Viable cells are reflected in relative luminescence units (RLU). […] Data can be recorded by luminometer or CCD camera imaging device. The luminescence output is presented as relative light units (RLU), measured over time.
The combination index (CI) score is calculated by the Chou and Talalay method (Chou, T. and Talalay, P. (1984) Adv. Enzyme Regul. 22:27-55). […] The strength of synergy is assessed according to Chou and Talalay. […]
The in vitro cell survival and proliferation assay (Cell-Titer Glo, Promega) measured viable cells over varying inhibitor concentrations (10^−3 to 10 μMolar, Relative Units, wherein a Relative Unit equals 0.3 micromolar for Compound 3, 0.3 micromolar for Formula A, and 0.1 micromolar for Formula B). […]

Nc1sc(-c2c(F)cccc2F)nc1C(=O)Nc1cnccc1N1CCC[C@H](N)C1 [Example 3, (S)-5-amino-N-(4-(3-aminopiperidin-1-yl)pyridin-3-yl)-2-(2,6-difluorophenyl)thiazole-4-carboxamide]
lowest level reached by dose-response curve, of control value: does not fully reach 0% of the control value
